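Where inhibition never reached the appropriate level, the endpoint shown equals the highest concentration tested. Otherwise, values were interpolated linearly from a five-concentration, 48-hour dose response in 96-well plates. GI50 = concentration required for 50% inhibition of growth. TGI: total growth inhibition.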
What was measured:
Assay in all cases: NCI tumour cell line growth inhibition, 48 h
[1] = test system: T-47D breast
[2] = test system: DU-145 prostate
[3] = test system: MCF7 breast
[4] = test system: PC-3 prostate
[5] = test system: HCT-15 colon

| SMILES | GI50 [1] [µM] | TGI [1] [µM] | GI50 [2] [µM] | TGI [2] [µM] | GI50 [3] [µM] | TGI [3] [µM] | GI50 [4] [µM] | TGI [4] [µM] | GI50 [5] [µM] | TGI [5] [µM] |
| --- | --- | --- | --- | --- | --- | --- | --- | --- | --- | --- |
| CC(C)(C)OC(=O)N(CCCN(CCn1c2c(c3ccccc3c1=O)C(=O)c1ccccc1-2)C(=O)OC(C)(C)C)CCn1c2c(c3ccccc3c1=O)C(=O)c1ccccc1-2 | > 50 | > 50 | > 50 | > 50 | > 50 | > 50 | > 50 | > 50 | 31.1 | > 50 |
| CNC1C(=O)C(C)C(O)(C(CC(C)C(O)/C=C/C=C/CNC(=O)C(C)(C)C(O)\C(C)=C/C=C\C=C\Cc2cnc(C)o2)OC)C12C(=O)OC2COC (stereo not given) (tested in a mixture with another compound) | – | > 93.3 | – | > 100 | – | > 84.9 | – | 63.5 | – | > 63.1 |
| Cc1c2c(nn1-c1ccc(S(=O)(=O)/N=C3\SCC(=O)N3C(=O)c3ccccc3)cc1)-c1ccccc1CC2 | – | – | 38.6 | > 100 | – | – | 42.1 | > 100 | 22.4 | 49.5 |
| O=C(O)C(Sc1ccc(Cl)cc1)Sc1ccc(Cl)cc1 | – | > 100 | – | > 100 | – | > 100 | – | > 100 | – | > 100 |
| CC[C@H](C)[C@H](NC(=O)[C@H]1CCCCN1C)C(=O)N(C)[C@H](CCc1nc(C(=O)N[C@@H](Cc2ccccc2)C[C@H](C)C(=O)OC)cs1)C(C)C | – | – | 0.351 | > 25 | 0.0648 | > 25 | 0.375 | > 25 | 0.712 | > 25 |
| COc1ccc(C(=O)/C=C/c2cccnc2Nc2cc(OC)c(OC)c(OC)c2)cc1 | 1.94 | 15.6 | 4.89 | 17.1 | 0.106 | 11 | 1.53 | 10.1 | 0.884 | 3.86 |
| COc1cc([C@@H]2c3cc4c(cc3C(O[C@@H]3O[C@@H]5CO[C@@H](c6cccs6)OC5[C@H](O)[C@H]3O)C3COC(=O)[C@@H]32)OCO4)cc(OC)c1O (stereo not given in full) | 0.0207 | 0.434 | 0.0459 | 0.369 | 0.00975 | 16.5 | 0.51 | 32.9 | 0.499 | 19.4 |
| Cn1cc(-c2csc(-c3cccc(F)c3)n2)c2cccnc21 | 14.4 | 51.7 | 18.2 | 32.1 | 17.9 | 43.4 | 16.2 | 39.5 | 14 | 35.7 |
| NCCCCn1c2c(c3ccccc3c1=O)C(=O)c1ccccc1-2 | 0.631 | 6.81 | 0.0131 | 0.498 | < 0.0359 | – | 0.193 | 2.16 | 0.0582 | 0.412 |
| O=C(C[C@@H](C(=O)NCc1cccc(C(F)(F)F)c1)N1C(=O)[C@@H](N2C(=O)OC[C@@H]2c2ccccc2)[C@H]1/C=C/c1ccccc1)NC1CCN(Cc2ccccc2)CC1 | 15.7 | 38.9 | 7.72 | > 100 | 1.61 | 3.51 | 6.06 | 20.8 | 10.9 | 35.2 |
| COc1ccc(OC(=O)O[C@H]2[C@H](O[C@H]3[C@@H](O)COC(O[C@H]4C[C@H]5[C@@H]6CC=C7C[C@@H](O)CC[C@]7(C)[C@H]6CC[C@]5(C)[C@H]4[C@H](C)C(=O)CCC(C)C)[C@@H]3OC(C)=O)OC[C@@H](O)[C@@H]2O)cc1 (stereo not given in full) | 0.0505 | 19.8 | 3.53 | 22.7 | 0.0782 | 12.8 | 0.0103 | 10.1 | 1.29 | 11.4 |
| CCCCNC(=O)NS(=O)(=O)c1ccc(N2N=C(c3ccc(C)cc3C)CC2c2ccc(N(C)C)cc2)cc1 (stereo not given) | 5.16 | > 100 | 5.75 | 81.1 | 2.63 | > 100 | 3.34 | > 100 | 3.09 | > 100 |
| CCOC(=O)c1c(C)n(Cc2ccc(OC)cc2)c2c1cc(O)c1[nH]c3c(c12)CCCC3 | 2.02 | 38.8 | 27.5 | > 100 | 4.97 | 19.8 | 2.86 | 37.4 | 3.44 | 13.2 |
| COc1ccc(C2CC(=O)c3c(OC)cc(OC)cc3O2)cc1 (stereo not given) | > 100 | > 100 | > 100 | > 100 | > 100 | > 100 | > 100 | > 100 | > 100 | > 100 |
| CCCNC(=S)N/N=C(\C)c1ccccn1 | 0.0274 | > 100 | 1.1 | > 42.9 | < 0.01 | – | 0.0471 | > 100 | 0.0514 | > 100 |
| COc1ccc(-c2nc(-c3nc4ccc(C)cc4[nH]3)c3ccccn23)cc1 | 2.27 | 8.06 | 2.85 | > 100 | 2.7 | > 100 | 1.88 | 7.68 | 2.83 | > 100 |
| C[C@]12CC[C@@H]3c4ccc(O)cc4C[C@@H](CCCCCCCCCS(=O)CCCC(F)(F)C(F)(F)F)[C@H]3[C@@H]1CC[C@@H]2O (stereo not given in full) | 0.71 | > 100 | > 100 | > 100 | – | > 100 | > 100 | > 100 | > 100 | > 100 |
| COc1ccc(-n2cc(-c3cc(OC)c(OC)c(OC)c3)[nH]c2=S)cc1OC | > 100 | > 100 | > 100 | > 100 | > 100 | > 100 | > 100 | > 100 | > 100 | > 100 |
| COc1cc([N+](=O)[O-])ccc1NC(=O)C(F)(F)F | – | > 100 | – | > 100 | – | > 100 | – | > 100 | – | > 100 |
| COc1cc(-c2c(C#N)c(N)n3c(nc4ccccc43)c2C#N)cc(Br)c1OC | – | – | – | – | – | – | 4.4 | > 100 | > 100 | > 100 |
| O=C(O)c1cc(N=Nc2ccc([As](=O)(O)O)cc2)ccc1O | – | > 100 | – | > 100 | – | > 100 | – | > 100 | – | > 100 |
| COc1cc(Cn2c(-c3ccccc3)cc3c2-c2oncc2CC3)cc(OC)c1OC | 1.07 | 81.2 | 1.73 | > 100 | 0.443 | 22.3 | 3.62 | > 100 | 0.64 | > 100 |

Source: PubChem BioAssay (NCI)
